Assay results: the NIST ThermoML archive (doi:10.1021/je8003832)
Numbers after ± are expanded uncertainties.

Experiment: xn = mol fraction of the nth substance listed
Conditions: 101 kPa, Liquid

CCCCn1cc[n+](C)c1.O=S(=O)([O-])C(F)(F)F [1-butyl-3-methylimidazolium trifluoromethanesulfonate] + O
Conditions	mass density [kg/m3]	viscosity [mPa·s]
303.15 K, x2 = 0	1298.4 ± 4	63.19 ± 4.1
303.15 K, x2 = 0.1032	1294.5 ± 3.9	45.7 ± 3
303.15 K, x2 = 0.1939	1291.2 ± 3.9	35.41 ± 2.3
303.15 K, x2 = 0.2987	1286.5 ± 3.8	28.97 ± 1.9
303.15 K, x2 = 0.3999	1280.8 ± 3.7	23.25 ± 1.6
303.15 K, x2 = 0.501	1272.8 ± 3.6	19.19 ± 1.3
303.15 K, x2 = 0.5923	1263 ± 3.6	15.47 ± 1.1
303.15 K, x2 = 0.7023	1246.2 ± 3.5	11.56 ± 0.84
303.15 K, x2 = 0.799	1220.1 ± 3.4	8.206 ± 0.63
303.15 K, x2 = 0.901	1164.6 ± 3.3	4.552 ± 0.4
308.15 K, x2 = 0	1294.9 ± 4.1	51.73 ± 0.56
308.15 K, x2 = 0.1032	1291 ± 4	37.23 ± 2.4
308.15 K, x2 = 0.1939	1287.7 ± 4	29.27 ± 1.9
308.15 K, x2 = 0.2987	1283 ± 3.9	24.28 ± 1.6
308.15 K, x2 = 0.3999	1277.3 ± 3.8	19.95 ± 1.4
308.15 K, x2 = 0.501	1269.3 ± 3.7	16.8 ± 1.2
308.15 K, x2 = 0.5923	1259.5 ± 3.7	13.2 ± 0.94
308.15 K, x2 = 0.7023	1242.5 ± 3.6	10.13 ± 0.75
308.15 K, x2 = 0.799	1216.6 ± 3.5	6.932 ± 0.55
308.15 K, x2 = 0.901	1160.6 ± 3.3	3.869 ± 0.34
313.15 K, x2 = 0	1291.4 ± 4.2	42.46 ± 2.8
313.15 K, x2 = 0.1032	1287.5 ± 4.2	30.93 ± 2
313.15 K, x2 = 0.1939	1284.1 ± 4.1	24.46 ± 1.6
313.15 K, x2 = 0.2987	1279.4 ± 4	20.53 ± 1.4
313.15 K, x2 = 0.3999	1273.8 ± 3.9	16.88 ± 1.2
313.15 K, x2 = 0.501	1265.7 ± 3.9	13.95 ± 0.99
313.15 K, x2 = 0.5923	1255.9 ± 3.8	11.21 ± 0.82
313.15 K, x2 = 0.7023	1238.8 ± 3.7	8.605 ± 0.66
313.15 K, x2 = 0.799	1212.9 ± 3.6	5.989 ± 0.5
313.15 K, x2 = 0.901	1156.7 ± 3.4	3.376 ± 0.3
318.15 K, x2 = 0	1287.8 ± 4.3	35.17 ± 2.3
318.15 K, x2 = 0.1032	1283.8 ± 4.3	25.04 ± 1.7
318.15 K, x2 = 0.1939	1280.4 ± 4.2	20.79 ± 1.4
318.15 K, x2 = 0.2987	1275.8 ± 4.1	17.55 ± 1.2
318.15 K, x2 = 0.3999	1270.2 ± 4	14.38 ± 1
318.15 K, x2 = 0.501	1262 ± 4	12 ± 0.87
318.15 K, x2 = 0.5923	1252.2 ± 3.9	9.907 ± 0.74
318.15 K, x2 = 0.7023	1234.9 ± 3.8	7.465 ± 0.59
318.15 K, x2 = 0.799	1208.9 ± 3.7	5.339 ± 0.45
318.15 K, x2 = 0.901	1153 ± 3.5	3.156 ± 0.28
323.15 K, x2 = 0	1284.4 ± 4.5	29.55 ± 2
323.15 K, x2 = 0.1032	1280.3 ± 4.4	21.51 ± 1.5
323.15 K, x2 = 0.1939	1276.8 ± 4.3	18.11 ± 1.2
323.15 K, x2 = 0.2987	1272.2 ± 4.2	15.17 ± 1.1
323.15 K, x2 = 0.3999	1266.5 ± 4.1	12.62 ± 0.91
323.15 K, x2 = 0.501	1258.3 ± 4.1	10.42 ± 0.77
323.15 K, x2 = 0.5923	1248.5 ± 4	8.516 ± 0.65
323.15 K, x2 = 0.7023	1231.1 ± 3.9	6.576 ± 0.53
323.15 K, x2 = 0.799	1205.2 ± 3.8	4.57 ± 0.4
323.15 K, x2 = 0.901	1150 ± 3.6	3.005 ± 0.27
333.15 K, x2 = 0	1277.4 ± 4.7	21.61 ± 1.5
333.15 K, x2 = 0.1032	1273.1 ± 4.6	16.07 ± 1.1
333.15 K, x2 = 0.1939	1269.7 ± 4.5	13.51 ± 0.96
333.15 K, x2 = 0.2987	1265 ± 4.4	11.61 ± 0.85
333.15 K, x2 = 0.3999	1259.3 ± 4.4	9.88 ± 0.74
333.15 K, x2 = 0.501	1251.1 ± 4.3	8.101 ± 0.63
333.15 K, x2 = 0.5923	1241.3 ± 4.2	6.702 ± 0.54
333.15 K, x2 = 0.7023	1223.4 ± 4.1	5.137 ± 0.44
333.15 K, x2 = 0.799	1197.2 ± 4	3.618 ± 0.32
333.15 K, x2 = 0.901	1142.6 ± 3.8	2.099 ± 0.19
343.15 K, x2 = 0	1270.5 ± 4.9	16.38 ± 1.1
343.15 K, x2 = 0.1032	1266 ± 4.8	12.44 ± 0.9
343.15 K, x2 = 0.1939	1262.6 ± 4.7	10.54 ± 0.78
343.15 K, x2 = 0.2987	1257.9 ± 4.6	9.137 ± 0.69
343.15 K, x2 = 0.3999	1252.2 ± 4.6	7.816 ± 0.61
343.15 K, x2 = 0.501	1244 ± 4.5	6.612 ± 0.53
343.15 K, x2 = 0.5923	1233.9 ± 4.4	5.384 ± 0.46
343.15 K, x2 = 0.7023	1215.6 ± 4.3	4.24 ± 0.37
343.15 K, x2 = 0.799	1189.3 ± 4.2	2.936 ± 0.26
343.15 K, x2 = 0.901	1134.3 ± 4.1	1.714 ± 0.16
